Earlier results on one molecule are cited in US20240117023A1, “METHOD” (Agency for Science, Technology and Research, priority 2021, published 2024).

The data set concerns RA and OA animal models. The note with it: in vivo; cited from earlier work.

Turning to `CN1C(=O)N(C[C@H](C(=O)NO)[C@@H](CC2CCCC2)C(=O)N2CCCCC2)C(=O)C1(C)C` [Trocade], the “effect in animal models” value was “protective effects against RA and OA”.
